From PMC6938345, “Inhibition of complement activation, myeloperoxidase, NET formation and oxidant activity by PIC1 peptide variants” (PLoS ONE, 2019)

What was measured:
[1] = test system: purified human neutrophils; assay: NETosis assay, free DNA by PicoGreen; assay type: cell-based; settings: Average of n = 3; peptide 2 mM
Procedure: NETosis assays with immune complexes were performed as previously described. Briefly, normal human serum was stimulated with ovalbumin-antiovalbumin immune complexes in GVBS^++ for 30 minutes at 37 °C. This mixture along with 0.05% H2O2 was then added to purified human neutrophils resuspended in RPMI with or without sarcosine variants (2 mM), allowing NETosis to occur. Quantitation of free DNA released from the neutrophils was performed using PicoGreen. Slides were stained with DAPI (Southern Biotech, Birmingham, AL) and the following antibodies, mouse anti-elastase (Invitrogen, Carlsbad, CA) was used with the secondary goat anti-mouse Alexa Fluor 568 (Novus Biologicals, Centennial, CO) and rabbit anti-histone H3 (Abcam, Cambridge MA) with goat anti-rabbit Alexa Fluor 488 (Novus Biologicals) to visualize formation of NETs which were imaged with fluorescence microscopy with an Olympus BX53 microscope.
In this assay purified human neutrophils are stimulated with normal human serum activated with ovalbumin-antiovalbumin immune complexes and hydrogen peroxide. Free DNA expressed from the neutrophils is then measured in a PicoGreen assay.
Fig 5 Sarcosine variant inhibition of NET formation. Fluorescence microscopy images of NET formation after neutrophil stimulation with immune complexes (IC) and hydrogen peroxide (H2O2) compared with neutrophil only control. Variant I8 inhibition of NET formation is shown in the third row. Histones are probed with anti-histone antibody (αhistone), neutrophil elastase is probed with anti-neutrophil elastase (αNE) and DNA is stained with DAPI. Representative images are shown. […] Purified human neutrophils were stimulated with 2% normal human sera pre-incubated with ovalbumin-antiovalbumin immune complexes, and 0.05% H2O2. Sarcosine peptides and PIC1 were added to the sera to a final concentration of 2 mM. Data are the means of n = 3 independent experiments + SEM.

[2] = test system: antibody-initiated complement activation (type O sera + type AB red blood cells); assay: ABO incompatibility hemolytic assay (CH50-type, ex vivo); assay type: cell-based, human; settings: peptides 1.8 mM
Procedure: For hemolytic complement assays, human red blood cells (RBCs) from type AB donors were purified, washed and standardized to 1 × 10^9 cells/ml, as previously described. Human sera from type O donors at a 20% final concentration was combined with 1 mM PIC1 or sarcosine variant peptides and the volume was brought up to 0.15 ml with GVBS^++ and 0.5 ml RBCs. For factor B-depleted sera hemolytic assays, a final of 0.005% factor B depleted sera was incubated with 1 mM PIC1 or sarcosine variant peptides with 0.1 ml antibody-sensitized sheep red blood cells (EA) in a final volume of 0.75 ml GVBS^++. The samples were incubated for 1 hour at 37 °C and then 1.0 ml of GVBS^-—was added to the factor B-depleted samples to stop the reaction. The samples were spun at 3,000 rpm for 5 minutes and the supernatant was collected and read at 412 nm. Values are represented as a percent of the positive control, which consists of human O sera and AB red blood cells in GVBS^++ buffer.
In order to evaluate the extent to which the peptide variants inhibit antibody-initiated complement activation, we tested them in two hemolytic assays including an ABO incompatibility ex vivo assay (Fig 1A) and a classical pathway CH50-type assay in factor B-depleted sera (Fig 1B). In the ABO incompatibility hemolytic assay, purified erythrocytes from a ‘type AB+’ donor are incubated with sera from a ‘type O’ subject containing anti-A and anti-B antibodies; peptides were tested at 1.8 mM. […] We then performed a CH50-type hemolytic assay, with antibody-sensitized sheep erythrocytes, isolating the classical pathway by utilizing factor B-depleted sera; peptides were tested at 0.4 mM.
Fig 1 Sarcosine variant inhibition of complement activation in hemolytic assays and C1q binding. A) Inhibition of ABO incompatibility hemolysis in a CH50-type assay. Peptides are at a final concentration of 1.8 mM. […] Data are the means of n = 4 independent experiments + SEM. B) Inhibition of classical complement pathway-mediated hemolysis in factor B-depleted sera in a CH50-type assay. Peptides are at a final concentration of 0.4 mM. Data are the means of n = 4 independent experiments + SEM. C) Binding of increasing concentrations of sarcosine variants to purified C1q in an ELISA-type assay. Data are the means of n = 3 independent experiments ± SEM. D) Half-maximal binding concentrations were calculated for each peptide’s binding curve.

MPO heme ring = target: T1, MPO heme ring (Homo sapiens, UniProt P05164); assay: MPO heme ring oxidative degradation; assay type: biochemical; settings: peptides 3.0 mM, H2O2, absorbance 300-550 nm
T1 construct: purchased Lee BioSolutions (Maryland Heights, MO)
T1 sequence (P05164 49-745): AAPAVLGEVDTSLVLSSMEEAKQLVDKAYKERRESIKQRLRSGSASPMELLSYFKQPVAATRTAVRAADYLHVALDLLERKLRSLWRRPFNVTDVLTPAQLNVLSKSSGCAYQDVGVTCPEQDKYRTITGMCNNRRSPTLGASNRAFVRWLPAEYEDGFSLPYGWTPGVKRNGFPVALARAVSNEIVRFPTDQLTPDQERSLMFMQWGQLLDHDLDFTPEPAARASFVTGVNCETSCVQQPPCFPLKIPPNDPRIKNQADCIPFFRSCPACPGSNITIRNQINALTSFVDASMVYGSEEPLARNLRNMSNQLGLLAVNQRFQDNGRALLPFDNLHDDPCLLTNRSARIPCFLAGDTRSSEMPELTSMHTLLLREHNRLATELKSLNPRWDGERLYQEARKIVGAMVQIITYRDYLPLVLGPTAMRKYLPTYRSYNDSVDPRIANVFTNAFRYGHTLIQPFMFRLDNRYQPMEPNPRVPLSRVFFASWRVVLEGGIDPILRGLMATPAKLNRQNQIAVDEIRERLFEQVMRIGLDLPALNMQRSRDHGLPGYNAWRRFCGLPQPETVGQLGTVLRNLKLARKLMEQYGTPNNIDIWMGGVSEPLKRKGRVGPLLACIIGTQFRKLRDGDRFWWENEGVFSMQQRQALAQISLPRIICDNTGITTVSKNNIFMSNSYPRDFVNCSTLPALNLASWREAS
Procedure: In a 96 well plate, 0.025 ml of 1.7 mg/ml MPO was combined with 0.00125 ml of 0.5% H2O2 and 3 mM PIC1 or sarcosine variant peptides in a total volume of 0.125 ml PBS and left to incubate at room temperature for 2 minutes. Using a 96 well plate reader, the wells were scanned for absorbance from 300–550 nm to generate curves reflecting the iron state in the MPO heme ring, as previously reported.
We then evaluated the ability of the variants to prevent degradation of the heme ring in the MPO molecule. […] This can be evaluated via spectrometric measurements of absorption of wavelengths from 300–550 nm. Absorption measurements were made over this spectrum for all variants (Fig 3A–3H). […] The heme ring preservation for these two variants was greater than that for the parent compound, PA-dPEG24.
Fig 3 Sarcosine variant protection of MPO heme ring from oxidative degradation. Absorbance spectra for the heme ring is shown in the absence of hydrogen peroxide (MPO) in red, in the presence of hydrogen peroxide (MPO+H2O2) in black, in the presence of peptide in blue, and in the presence of hydrogen peroxide and peptide together in green. […] B-H) Peptides A2 – C9,10 are denoted in the legends. Peptides were tested at a concentration of 3.0 mM.

[3] = Total Antioxidant Capacity (TAC) assay
Procedure: The TAC (Total Antioxidant Capacity) Assay (Cell Biolabs, Inc, San Diego, CA) was used to measure the antioxidant capacity of the sarcosine variants based on the reduction of copper (II) to copper (I). The kit protocol was performed as recommended.
Antioxidant activity is measured in copper reducing equivalents (CRE). Peptides were tested over a range of concentrations from 0.03–0.25 mM then compared to the standard. Data are the means of n = 3 independent experiments + SEM.

[4] = Peptide solubility in water
Procedure: (PA) (Table 1) were synthesized by New England Peptide (Gardner, MA) to >90% purity. Sarcosine variants and PEG were dissolved in water and the pH was adjusted with NaOH. PA was dissolved in DMSO and then brought up to the final concentration with water resulting in 30% DMSO and pH adjusted. Antibody sensitized sheep erythrocytes (EA), purified C1q and factor B-depleted human sera were purchased from Complement Technology (Tyler, TX). Purified myeloperoxidase was purchased from Lee BioSolutions (Maryland Heights, MO) and tetramethylbenzidine (TMB) and PicoGreen were purchased from Thermo Fisher (Waltham MA).
(PA), peptide derivatives were synthesized with sarcosine residues substituted at all 15 positions, included a peptide in which the vicinal cysteines at positions 9 and 10 (C9,C10) were replaced with a single sarcosine residue (Table 1).

For CC[C@H](C)[C@H](N)C(=O)N[C@@H](C)C(=O)N[C@@H](CC(C)C)C(=O)N[C@H](C(=O)N[C@@H](CC(C)C)C(=O)N[C@@H](CCC(=O)O)C(=O)N1CCC[C@H]1C(=O)N[C@H](C(=O)N(C)CC(=O)N[C@@H](CS)C(=O)N[C@@H](CCC(N)=O)C(=O)N[C@@H](CCC(=O)O)C(=O)N[C@@H](CCCNC(=N)N)C(=O)N[C@@H](C)C(=O)N[C@@H](C)C(=O)O)[C@@H](C)CC)[C@@H](C)CC [C9], the “PICO green - NETs, free DNA release” value [1] was 38, the ABO hemolysis ([2]; Avg of n = 4, concentration basis of PIC1 not stated) was 18.25 % of Control and the “inhibition of ABO incompatible hemolysis (in words)” value [2] was “to a greater extent than did the PA-dPEG24”. The “protection of MPO heme ring from degradation (in words)” value (MPO heme ring) was “near perfect preservation”, the “TAC assay, antioxidant activity” value ([3]; Avg of n = 3) was 845.83 copper reducing equivalents (CRE) and the “antioxidant capacity (in words)” value ([3]; TAC assay) was “approximately half of the antioxidant capacity as PA-dPEG24”. For the same molecule, the “solubility in water (in words)” value [4] was “soluble in water”.
